Where “and” joins values, the source holds several entries; their conditions need not be identical. Equal entries are not always repeated.
Each compound was assayed against Protein disulfide-isomerase (Homo sapiens) (UniProt P07237) (assay: inhibition of PDI-mediated insulin reduction – biochemical, turbidity, absorbance, cherry-picked samples, set 2, dose response (AID 624274)). Details: absorbance 650 nm.
Protein disulfide-isomerase (Homo sapiens), sequence (P07237 whole entry, looked up): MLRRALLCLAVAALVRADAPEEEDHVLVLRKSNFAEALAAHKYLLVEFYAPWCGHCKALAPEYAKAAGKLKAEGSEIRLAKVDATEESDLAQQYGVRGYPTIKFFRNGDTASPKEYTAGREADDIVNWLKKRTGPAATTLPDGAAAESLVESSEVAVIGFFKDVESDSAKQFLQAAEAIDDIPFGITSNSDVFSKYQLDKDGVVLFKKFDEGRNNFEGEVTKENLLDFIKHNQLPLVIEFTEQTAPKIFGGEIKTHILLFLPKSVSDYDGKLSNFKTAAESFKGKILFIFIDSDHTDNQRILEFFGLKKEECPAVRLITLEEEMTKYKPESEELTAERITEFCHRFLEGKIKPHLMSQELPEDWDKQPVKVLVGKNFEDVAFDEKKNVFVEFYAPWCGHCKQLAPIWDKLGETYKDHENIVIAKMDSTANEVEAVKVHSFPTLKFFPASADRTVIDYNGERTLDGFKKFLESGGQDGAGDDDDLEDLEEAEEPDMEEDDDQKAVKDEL

| Structure (SMILES) | AC50 |
| --- | --- |
| C[C@H](CO)N1C[C@H](C)[C@@H](CN(C)S(=O)(=O)c2ccc(F)cc2)Oc2ccc(NC(=O)Cc3cn(C)c4ccccc34)cc2C1=O | 19.5 µM |
| CC(Cc1ccccc1Sc1ccccc1O)N(C)C (stereo unspecified) | 15.9 µM |
| C[C@@H]1O[C@@H](OC[C@H]2O[C@@H](Oc3c(-c4ccc(O)c(O)c4)oc4cc(O)cc(O)c4c3=O)[C@H](O)[C@@H](O)[C@@H]2O)[C@H](O)[C@H](O)[C@H]1O | 7.62 µM |
| C[C@@H]1O[C@@H](Oc2c(-c3cc(O)c(O)c(O)c3)oc3cc(O)cc(O)c3c2=O)[C@H](O)[C@H](O)[C@H]1O | 9.8 µM |
| CCOC(=O)C1(CCOc2ccccc2)CCN(Cc2cc(OC)c(O)cc2Cl)CC1 | 6.03 µM |
| Cc1noc(C)c1S(=O)(=O)Nc1ccc2c(c1)CC(=O)N([C@H](C)CO)C[C@H](C)[C@H](CN(C)S(=O)(=O)c1ccc(F)cc1)O2 | 19.5 µM and 16.9 µM |
| CC(C)Sc1nnc([C@H](Cc2c[nH]c3ccccc23)NC(=O)OC(C)(C)C)o1 | 19.5 µM |
| Cc1ccc(S(=O)(=O)CCC(=O)c2ccc(O)cc2O)cc1 | 15.6 µM |
| O=C(c1ccco1)N1CCN(Cc2cc(=O)oc3cc(O)ccc23)CC1 | 19.5 µM |
| COc1ccc(N2CCN(CC(=O)c3ccc(O)c(C)c3O)CC2)cc1 | 19.5 µM |
| C[C@@H]1CN([C@H](C)CO)C(=O)c2cccc(NS(C)(=O)=O)c2O[C@H]1CN(C)Cc1ccc(Oc2ccccc2)cc1 | 18.8 µM |
| O=C(c1c(O)cc(O)cc1O)C1c2c(cc(O)c3c2O[C@H](c2ccc(O)cc2)[C@@H](O)C3)OC1c1ccc(O)cc1 (stereo partly specified) | 19.5 µM |
| O=c1c(O[C@@H]2O[C@H](CO)[C@@H](O)[C@H](O)[C@H]2O)c(-c2ccc(O)cc2)oc2cc(O)cc(O)c12 | 19 µM |
| CC[C@]12c3[nH]c4cc(-c5ccco5)ccc4c3CCN1C(=O)[C@@H](CC(=O)NCc1ccc(OC)c(OC)c1)C[C@@H]2C(=O)N1CCN(C(=O)c2ccco2)CC1 | 4.25 µM |
| COc1ccc(C2c3ccc(O)cc3Oc3ncn(CCN4CCOCC4)c(=N)c32)cc1OC (stereo unspecified) | 15.5 µM |
| Cc1cccn2c(CN(C)C3CCCc4ccccc43)c(C(=O)N3CCOCC3)nc12 (stereo unspecified) | 19.5 µM |
| C[C@@H]1O[C@@H](O[C@@H]2C(=O)c3c(O)cc(O)cc3O[C@H]2c2ccc(O)c(O)c2)[C@H](O)[C@H](O)[C@H]1O | 10.2 µM |
| C[C@H]1CN([C@@H](C)CO)C(=O)c2cc(NC(=O)Cc3cn(C)c4ccccc34)ccc2O[C@@H]1CN(C)S(=O)(=O)c1ccc(F)cc1 | 19.5 µM |
| CCN1CC2(COC(=O)c3ccccc3N)CCC(OC)C34C5CC6C(OC)CC(O)(C5C6OC)C(O)(C(OC)C23)C14 (stereo unspecified) | 19.5 µM |
| CN(C)C(=O)CSc1nnc([C@H](Cc2c[nH]c3ccccc23)NC(=O)OC(C)(C)C)o1 | 19.5 µM |
| CCN1C[C@]2(COC(=O)c3ccccc3N)CC[C@H](OC)C34[C@@H]5C[C@H]6[C@H](OC)[C@@H]5[C@](O)(C[C@@H]6OC)[C@@](O)([C@H]13)[C@@H](OC)[C@@H]42 | 19.5 µM |
| O=C(NC(Cc1ccc(O)cc1)C(=O)N=Nc1c(O)[nH]c2ccccc12)c1ccccc1 (stereo unspecified) | 19.5 µM |
| COc1cc(-c2oc3cc(O)cc(O)c3c(=O)c2O[C@@H]2O[C@H](COC3O[C@@H](C)[C@H](O)[C@@H](O)[C@H]3O)[C@@H](O)[C@H](O)[C@H]2O)ccc1O (stereo partly specified) | 7.96 µM |
| COc1ccc2c(CC(=O)OCC(=O)N(C)c3c(N)n(Cc4ccccc4)c(=O)[nH]c3=O)coc2c1 | 5.45 µM |
| O=C1NC[C@H](Cc2ccc(O)cc2)N(CC2CCCCC2)C1=O | 19.5 µM |
| COC1/C=C/C=C(\C)Cc2cc(O)c(Cl)c(c2)N(C)C(=O)CC(OC(=O)C(C)C)C2(C)OC2C(C)C2CC1(O)NC(=O)O2 (stereo unspecified) | 9.59 µM |

| Structure (SMILES) | AC50 |
| --- | --- |
| COc1cccc2c1C(=O)c1c(O)c3c(c(O)c1C2=O)CC(O)(C(C)=NO)CC3OC1CC(N)C(O)C(C)O1 (stereo unspecified) | 16.9 µM |
| Cc1c(O)ccc2c(CN3CCN(C/C=C/c4ccccc4)CC3)cc(=O)oc12 | 19.5 µM |
| C/C=C(\C)C(=O)NCCN1C2=NC[C@H](Cc3ccc(O)cc3)N2C[C@H]1Cc1ccc(O)cc1 | 15.4 µM |
| Cc1cc(O)cc2c1C1CCC3(C)C(=O)CCC3C1C=C2 (stereo unspecified) | 19.5 µM |
| C[C@H](CO)N1C[C@H](C)[C@@H](CN(C)Cc2ccc(Oc3ccccc3)cc2)Oc2c(NS(C)(=O)=O)cccc2C1=O | 19.5 µM |
| C[C@H]1CN([C@@H](C)CO)C(=O)c2cc(NC(=O)Cc3cn(C)c4ccccc34)ccc2O[C@H]1CN(C)S(=O)(=O)c1ccc(F)cc1 | 19.5 µM |
| CCN1C(=O)C2C(c3ccccc3F)NC(Cc3ccc(O)cc3)(C(=O)OC)C2C1=O (stereo unspecified) | 10.2 µM |
| Cc1noc(C)c1S(=O)(=O)Nc1ccc2c(c1)CC(=O)N([C@H](C)CO)C[C@H](C)[C@@H](CN(C)S(=O)(=O)c1ccc(F)cc1)O2 | 19.5 µM |
| O=C1NC[C@H](Cc2ccccc2)N(C[C@H]2CCCN2C[C@H](Cc2ccccc2)N2C[C@H](Cc3ccc(O)cc3)N(CCc3ccccc3)C(=O)C2=O)C1=O | 6.5 µM |
| Cc1c(-n2cc(C(=O)c3ccccc3O)cc(C#N)c2=O)c(=O)n(-c2ccccc2)n1C | 5.89 µM |
| Cc1ccc2nc(N3CCN(Cc4nnnn4C4CCCC4)CC3)c(C#N)cc2c1 | 4.05 µM |
| O=C(O)C1C(c2ccccc2)C(C(=O)Oc2ccc(O)cc2)C1c1ccccc1 (stereo unspecified) | 14.7 µM |
| C[C@H](CO)N1C[C@H](C)[C@H](CN(C)Cc2ccccc2)Oc2ccc(NC(=O)Nc3ccccc3)cc2CC1=O | 19.5 µM |
| C[C@H](CO)N1C[C@H](C)[C@@H](CN(C)S(=O)(=O)c2ccccc2)Oc2ccc(NC(=O)Cc3cn(C)c4ccccc34)cc2C1=O | 0.125 µM |
| CC(=O)OC[C@H]1O[C@@H](Oc2cc(O)cc3oc(-c4ccc(O)cc4)cc(=O)c23)[C@H](O[C@@H]2O[C@@H](C)[C@H](O)[C@@H](O)[C@H]2O)[C@@H](O)[C@@H]1O | 19.5 µM |
| O=S(=O)(c1ccccc1)N1N=C(c2ccc(O)cc2)CC1c1ccco1 (stereo unspecified) | 19.5 µM |
| Cc1noc(C)c1S(=O)(=O)Nc1ccc2c(c1)CC(=O)N([C@@H](C)CO)C[C@H](C)[C@H](CN(C)S(=O)(=O)c1ccc(F)cc1)O2 | 19.5 µM |
| Oc1ccc(/C=C/c2nc(-c3ccccc3O)n(-c3ccccc3)n2)cc1 | 18.8 µM |
| NNC(=O)c1cc(-c2ccc(O)cc2)nc2ccc(Br)cc12 | 19.5 µM |
| CCOC(=O)c1c(CN2CCN(CCO)CC2)n(-c2ccccc2)c2cc(Br)c(O)cc12 | 0.61 µM |
| C[C@H]1CN([C@@H](C)CO)C(=O)c2cccc(NS(C)(=O)=O)c2O[C@@H]1CN(C)Cc1ccc(Oc2ccccc2)cc1 | 19.5 µM |
| CC[C@]12c3[nH]c4cc(-c5ccco5)ccc4c3CCN1C(=O)[C@@H](CC(=O)NCCCOC)C[C@@H]2C(=O)N1CCN(C(=O)c2ccco2)CC1 | 16.7 µM |
| COc1ccccc1N1CCN(C(=O)C(=O)N/N=C/c2cccc(O)c2)CC1 | 19.5 µM |
| CCSc1nnc([C@H](Cc2c[nH]c3ccccc23)NC(=O)OC(C)(C)C)o1 | 19.5 µM |
| COc1ccc(C(=O)Nc2ccccc2C(=O)NCc2ccco2)cc1 | 0.819 µM |

— PubChem BioAssay AID624274 (Broad Institute, 2012)
